Data published in PubChem BioAssay AID2060493 (Molecular Pharmacology Branch, DTP, NCI, 2025).
Each block holds one compound with its values, some of them ahead of it.

Test system: 616215-338-R-J1-PDC tumor spheroids, viability
Test: Anticancer human tumor 616215-338-R-J1-PDC patient-derived colon adenocarcinoma cell line growth inhibition [GQUAD]
Conditions: spheroids with HUVEC and MSC; for IC50: curve of first compound; for viability, T/C: stronger effect = lower value
Procedure, shortened: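 Tumor cells were grown as complex spheroids with HUVEC endothelial cells and mesenchymal stem cells as stroma. G-quadruplex stabilizers were combined with targeted agents over half-log dilutions from near the clinical Cmax, or from 10 microM.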

[1] = second compound 0.0316 µM, first compound 0.0316 µM
[2] = second compound 0.0316 µM, first compound 0.1 µM
[3] = second compound 0.0316 µM, first compound 0.316 µM
[4] = second compound 0.0316 µM, first compound 1 µM
[5] = second compound 0.0316 µM, first compound 3.16 µM
[6] = second compound 0.0316 µM, first compound 10 µM
[7] = second compound 0.1 µM, first compound 0.0316 µM
[8] = second compound 0.1 µM, first compound 0.1 µM
[9] = second compound 0.1 µM, first compound 0.316 µM
[10] = second compound 0.1 µM, first compound 1 µM
[11] = second compound 0.1 µM, first compound 3.16 µM
[12] = second compound 0.1 µM, first compound 10 µM
[13] = second compound 0.316 µM, first compound 0.0316 µM
[14] = second compound 0.316 µM, first compound 0.1 µM
[15] = second compound 0.316 µM, first compound 0.316 µM
[16] = second compound 0.316 µM, first compound 1 µM
[17] = second compound 0.316 µM, first compound 3.16 µM
[18] = second compound 0.316 µM, first compound 10 µM
[19] = second compound 1 µM, first compound 0.0316 µM
[20] = second compound 1 µM, first compound 0.1 µM
[21] = second compound 1 µM, first compound 0.316 µM
[22] = second compound 1 µM, first compound 1 µM
[23] = second compound 1 µM, first compound 3.16 µM
[24] = second compound 1 µM, first compound 10 µM
[25] = second compound 3.16 µM, first compound 0.0316 µM
[26] = second compound 3.16 µM, first compound 0.1 µM
[27] = second compound 3.16 µM, first compound 0.316 µM
[28] = second compound 3.16 µM, first compound 1 µM
[29] = second compound 3.16 µM, first compound 3.16 µM
[30] = second compound 3.16 µM, first compound 10 µM
[31] = second compound 10 µM, first compound 0.0316 µM
[32] = second compound 10 µM, first compound 0.1 µM
[33] = second compound 10 µM, first compound 0.316 µM
[34] = second compound 10 µM, first compound 1 µM
[35] = second compound 10 µM, first compound 3.16 µM
[36] = second compound 10 µM, first compound 10 µM
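Note: spheroids exposed to agents for 7 days before readout.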
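Throughout, for viability, T/C: percent viability relative to DMSO vehicle control wells taken as 100%.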

IC50 (second compound 0.0316 µM): 571 nM
IC50 (second compound 0.1 µM): 352 nM
IC50 (second compound 0.316 µM): < 31.6 nM
IC50 (second compound 1 µM): < 31.6 nM
IC50 (second compound 3.16 µM): < 31.6 nM
IC50 (second compound 10 µM): < 31.6 nM
SMILES: CC(C)(O)C1CCC(Nc2ccc3ncc(-c4cccc(C(F)(F)F)c4)n3n2)CC1 (stereo unspecified) + Cc1cnc(CNC(=O)c2c(=O)c3ccc(N4CCCN(C)CC4)nc3n3c2sc2ccccc23)cn1
viability, T/C [1]: 96.8%
viability, T/C [2]: 86.9%
viability, T/C [3]: 82.1%
viability, T/C [4]: 19.8%
viability, T/C [5]: 1.65%
viability, T/C [6]: 2.16%
viability, T/C [7]: 67.2%
viability, T/C [8]: 73.2%
viability, T/C [9]: 53.1%
viability, T/C [10]: 13.9%
viability, T/C [11]: 4.15%
viability, T/C [12]: 1.36%
viability, T/C [13]: 36.8%
viability, T/C [14]: 50.2%
viability, T/C [15]: 37.3%
viability, T/C [16]: 14.8%
viability, T/C [17]: 0.03%
viability, T/C [18]: 2.26%
viability, T/C [19]: 32.5%
viability, T/C [20]: 32.1%
viability, T/C [21]: 28.7%
viability, T/C [22]: 13.3%
viability, T/C [23]: 0.05%
viability, T/C [24]: 0.06%
viability, T/C [25]: 20.9%
viability, T/C [26]: 24.2%
viability, T/C [27]: 29.9%
viability, T/C [28]: 3.87%
viability, T/C [29]: 0.1%
viability, T/C [30]: 0.12%
viability, T/C [31]: 19.6%
viability, T/C [32]: 24.7%
viability, T/C [33]: 27.8%
viability, T/C [34]: 0.18%
viability, T/C [35]: 0.22%
viability, T/C [36]: 0.2%

IC50 (second compound 0.0316 µM): 5390 nM
IC50 (second compound 0.1 µM): 2100 nM
IC50 (second compound 0.316 µM): < 31.6 nM
IC50 (second compound 1 µM): < 31.6 nM
IC50 (second compound 3.16 µM): < 31.6 nM
IC50 (second compound 10 µM): < 31.6 nM
SMILES: CCCS(=O)(=O)Nc1ccc(F)c(C(=O)c2c[nH]c3ncc(-c4ccc(Cl)cc4)cc23)c1F + Cc1cnc(CNC(=O)c2c(=O)c3ccc(N4CCCN(C)CC4)nc3n3c2sc2ccccc23)cn1
viability, T/C [1]: 107%
viability, T/C [2]: 110%
viability, T/C [3]: 113%
viability, T/C [4]: 104%
viability, T/C [5]: 90%
viability, T/C [6]: 3.94%
viability, T/C [7]: 58.2%
viability, T/C [8]: 59%
viability, T/C [9]: 56%
viability, T/C [10]: 48.5%
viability, T/C [11]: 49.9%
viability, T/C [12]: 10.5%
viability, T/C [13]: 34.4%
viability, T/C [14]: 43.5%
viability, T/C [15]: 38.5%
viability, T/C [16]: 38.4%
viability, T/C [17]: 33.1%
viability, T/C [18]: 8.31%
viability, T/C [19]: 31%
viability, T/C [20]: 34.2%
viability, T/C [21]: 36.7%
viability, T/C [22]: 35.9%
viability, T/C [23]: 37.1%
viability, T/C [24]: 4.42%
viability, T/C [25]: 31.1%
viability, T/C [26]: 18.5%
viability, T/C [27]: 32.4%
viability, T/C [28]: 23%
viability, T/C [29]: 27.7%
viability, T/C [30]: 0.11%
viability, T/C [31]: 15.7%
viability, T/C [32]: 21.4%
viability, T/C [33]: 27.6%
viability, T/C [34]: 19.2%
viability, T/C [35]: 23.9%
viability, T/C [36]: 0.17%

IC50 (second compound 0.0316 µM): > 10000 nM
IC50 (second compound 0.1 µM): > 10000 nM
IC50 (second compound 0.316 µM): < 31.6 nM
IC50 (second compound 1 µM): < 31.6 nM
IC50 (second compound 3.16 µM): < 31.6 nM
IC50 (second compound 10 µM): < 31.6 nM
SMILES: COc1ncnc(C2CC2)c1-c1ncc2cnn(Cc3ccc(-c4nc(C(F)(F)F)cn4C(C)C)cc3)c2n1 + Cc1cnc(CNC(=O)c2c(=O)c3ccc(N4CCCN(C)CC4)nc3n3c2sc2ccccc23)cn1
viability, T/C [1]: 108%
viability, T/C [2]: 98.7%
viability, T/C [3]: 113%
viability, T/C [4]: 97.2%
viability, T/C [5]: 108%
viability, T/C [6]: 100%
viability, T/C [7]: 70.8%
viability, T/C [8]: 72.2%
viability, T/C [9]: 62.1%
viability, T/C [10]: 57.5%
viability, T/C [11]: 64.2%
viability, T/C [12]: 58.3%
viability, T/C [13]: 48.9%
viability, T/C [14]: 46%
viability, T/C [15]: 34.3%
viability, T/C [16]: 34.8%
viability, T/C [17]: 41.4%
viability, T/C [18]: 66.7%
viability, T/C [19]: 22.7%
viability, T/C [20]: 35.4%
viability, T/C [21]: 36.1%
viability, T/C [22]: 32.6%
viability, T/C [23]: 34.3%
viability, T/C [24]: 31.3%
viability, T/C [25]: 23%
viability, T/C [26]: 28.7%
viability, T/C [27]: 22.4%
viability, T/C [28]: 26.7%
viability, T/C [29]: 40.3%
viability, T/C [30]: 27.1%
viability, T/C [31]: 13.8%
viability, T/C [32]: 28.4%
viability, T/C [33]: 21.3%
viability, T/C [34]: 25.5%
viability, T/C [35]: 35.1%
viability, T/C [36]: 22.1%
